Legend:
Experiment in all cases: KINOMEscan
Format in all cases: binding
Details in all cases: read-out: percent of control
JNK2 = JNK2 (Homo sapiens (Human), UniProt P45984)
Procedure: (§1) In vitro profiling of Compound I-2 (1 μM) was performed using the DiscoveRx KINOMEscan® platform.

MARK1 = MARK1 (Homo sapiens (Human), UniProt Q9P0L2)
Procedure: as §1

ACVR2A = ACVR2A (Homo sapiens (Human), UniProt P27037)
Procedure: as §1

[1] = biological target: ABL1(F317I)-nonphosphorylated (Homo sapiens (Human), UniProt P00519, F317I)
Procedure: as §1

IKK-epsilon = IKK-epsilon (Homo sapiens (Human), UniProt Q14164)
Procedure: as §1

MKK7 = MKK7 (Homo sapiens (Human), UniProt O14733)
Procedure: as §1

OSR1 = OSR1 (Homo sapiens (Human), UniProt O95747)
Chain of OSR1 (O95747 whole entry): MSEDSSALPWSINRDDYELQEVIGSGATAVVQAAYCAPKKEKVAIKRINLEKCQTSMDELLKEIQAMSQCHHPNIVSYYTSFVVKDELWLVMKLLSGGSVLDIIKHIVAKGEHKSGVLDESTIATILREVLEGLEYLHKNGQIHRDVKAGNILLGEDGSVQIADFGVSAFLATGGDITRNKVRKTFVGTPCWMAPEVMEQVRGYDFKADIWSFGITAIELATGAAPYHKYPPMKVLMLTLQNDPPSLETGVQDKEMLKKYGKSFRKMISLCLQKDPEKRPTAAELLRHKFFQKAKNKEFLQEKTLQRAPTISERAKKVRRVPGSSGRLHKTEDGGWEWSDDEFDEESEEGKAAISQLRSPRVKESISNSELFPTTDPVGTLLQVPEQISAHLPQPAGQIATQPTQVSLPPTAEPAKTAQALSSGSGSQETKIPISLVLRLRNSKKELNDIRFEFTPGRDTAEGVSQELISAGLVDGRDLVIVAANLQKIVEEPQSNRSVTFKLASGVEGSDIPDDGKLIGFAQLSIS
Procedure: as §1

KIT(V559D) = KIT(V559D) (Homo sapiens (Human), UniProt P10721, V559D)
Procedure: as §1

TTK = TTK (Homo sapiens (Human), UniProt P33981)
Chain of TTK (P33981 whole entry): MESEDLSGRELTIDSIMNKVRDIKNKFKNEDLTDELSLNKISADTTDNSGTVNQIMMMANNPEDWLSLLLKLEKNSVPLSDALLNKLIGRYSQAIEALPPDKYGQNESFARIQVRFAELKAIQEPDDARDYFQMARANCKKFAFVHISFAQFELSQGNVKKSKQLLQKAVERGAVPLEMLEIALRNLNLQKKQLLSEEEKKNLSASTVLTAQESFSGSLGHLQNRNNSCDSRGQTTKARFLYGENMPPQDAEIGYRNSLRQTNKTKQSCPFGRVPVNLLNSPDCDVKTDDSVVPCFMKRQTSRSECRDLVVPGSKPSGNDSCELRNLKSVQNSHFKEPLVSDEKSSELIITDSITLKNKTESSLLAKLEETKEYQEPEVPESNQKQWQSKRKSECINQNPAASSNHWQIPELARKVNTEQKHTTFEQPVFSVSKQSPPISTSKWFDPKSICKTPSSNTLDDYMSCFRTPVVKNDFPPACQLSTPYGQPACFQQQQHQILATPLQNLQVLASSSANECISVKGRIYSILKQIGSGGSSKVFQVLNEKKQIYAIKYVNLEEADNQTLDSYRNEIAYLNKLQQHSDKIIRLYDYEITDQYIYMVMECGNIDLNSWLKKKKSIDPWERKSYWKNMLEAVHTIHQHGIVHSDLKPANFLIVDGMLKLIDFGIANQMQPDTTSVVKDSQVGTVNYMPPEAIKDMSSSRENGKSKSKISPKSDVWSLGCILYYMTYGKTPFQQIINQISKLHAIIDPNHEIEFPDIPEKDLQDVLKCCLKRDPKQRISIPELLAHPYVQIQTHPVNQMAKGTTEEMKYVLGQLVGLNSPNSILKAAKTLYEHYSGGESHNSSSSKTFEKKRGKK
Procedure: as §1

KIT(V559D,T670I) = KIT(V559D,T670I) (Homo sapiens (Human), UniProt P10721, T670I/V559D)
Procedure: as §1

DMPK2 = DMPK2 (Homo sapiens (Human), UniProt Q6DT37)
Procedure: as §1

DCAMKL1 = DCAMKL1 (Homo sapiens (Human), UniProt O15075)
Procedure: as §1

RIPK5 = RIPK5 (Homo sapiens (Human), UniProt Q6XUX3)
Procedure: as §1

[2] = biological target: RSK1 (Kin.Dom.1-N-terminal) (Homo sapiens (Human), UniProt Q15418)
Chain of RSK1 (Kin.Dom.1-N-terminal) (Q15418 62-321): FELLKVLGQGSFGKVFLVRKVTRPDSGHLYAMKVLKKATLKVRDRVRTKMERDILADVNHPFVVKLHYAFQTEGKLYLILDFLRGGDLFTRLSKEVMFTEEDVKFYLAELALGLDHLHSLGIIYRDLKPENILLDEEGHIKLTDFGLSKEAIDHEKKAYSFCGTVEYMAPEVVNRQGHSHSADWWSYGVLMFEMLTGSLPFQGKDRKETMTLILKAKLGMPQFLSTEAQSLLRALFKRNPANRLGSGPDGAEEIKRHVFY
Procedure: as §1

TBK1 = TBK1 (Homo sapiens (Human), UniProt Q9UHD2)
Chain of TBK1 (Q9UHD2 whole entry): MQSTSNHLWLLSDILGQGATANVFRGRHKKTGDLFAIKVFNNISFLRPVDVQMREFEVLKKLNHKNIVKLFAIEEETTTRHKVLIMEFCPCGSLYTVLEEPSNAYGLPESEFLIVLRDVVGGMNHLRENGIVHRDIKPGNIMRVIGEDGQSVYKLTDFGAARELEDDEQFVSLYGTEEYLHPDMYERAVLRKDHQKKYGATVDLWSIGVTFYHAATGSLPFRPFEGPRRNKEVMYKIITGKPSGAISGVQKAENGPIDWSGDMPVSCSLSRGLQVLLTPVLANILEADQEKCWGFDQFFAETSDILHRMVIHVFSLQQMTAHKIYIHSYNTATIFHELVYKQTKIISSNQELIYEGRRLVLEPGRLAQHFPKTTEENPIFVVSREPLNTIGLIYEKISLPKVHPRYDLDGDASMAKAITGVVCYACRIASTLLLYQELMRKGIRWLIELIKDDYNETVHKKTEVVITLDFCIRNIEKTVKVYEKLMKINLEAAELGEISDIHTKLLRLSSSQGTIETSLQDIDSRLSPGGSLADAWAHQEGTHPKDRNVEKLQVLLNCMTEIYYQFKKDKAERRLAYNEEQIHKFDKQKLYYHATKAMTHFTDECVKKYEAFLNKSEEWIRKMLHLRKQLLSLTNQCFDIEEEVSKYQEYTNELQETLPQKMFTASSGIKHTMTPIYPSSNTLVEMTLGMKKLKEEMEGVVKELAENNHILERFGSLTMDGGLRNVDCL
Procedure: as §1

AKT3 = AKT3 (Homo sapiens (Human), UniProt Q9Y243)
Procedure: as §1

TNK2 = TNK2 (Homo sapiens (Human), UniProt Q07912)
Procedure: as §1

ERBB3 = ERBB3 (Homo sapiens (Human), UniProt P21860)
Chain of ERBB3 (P21860 20-1342): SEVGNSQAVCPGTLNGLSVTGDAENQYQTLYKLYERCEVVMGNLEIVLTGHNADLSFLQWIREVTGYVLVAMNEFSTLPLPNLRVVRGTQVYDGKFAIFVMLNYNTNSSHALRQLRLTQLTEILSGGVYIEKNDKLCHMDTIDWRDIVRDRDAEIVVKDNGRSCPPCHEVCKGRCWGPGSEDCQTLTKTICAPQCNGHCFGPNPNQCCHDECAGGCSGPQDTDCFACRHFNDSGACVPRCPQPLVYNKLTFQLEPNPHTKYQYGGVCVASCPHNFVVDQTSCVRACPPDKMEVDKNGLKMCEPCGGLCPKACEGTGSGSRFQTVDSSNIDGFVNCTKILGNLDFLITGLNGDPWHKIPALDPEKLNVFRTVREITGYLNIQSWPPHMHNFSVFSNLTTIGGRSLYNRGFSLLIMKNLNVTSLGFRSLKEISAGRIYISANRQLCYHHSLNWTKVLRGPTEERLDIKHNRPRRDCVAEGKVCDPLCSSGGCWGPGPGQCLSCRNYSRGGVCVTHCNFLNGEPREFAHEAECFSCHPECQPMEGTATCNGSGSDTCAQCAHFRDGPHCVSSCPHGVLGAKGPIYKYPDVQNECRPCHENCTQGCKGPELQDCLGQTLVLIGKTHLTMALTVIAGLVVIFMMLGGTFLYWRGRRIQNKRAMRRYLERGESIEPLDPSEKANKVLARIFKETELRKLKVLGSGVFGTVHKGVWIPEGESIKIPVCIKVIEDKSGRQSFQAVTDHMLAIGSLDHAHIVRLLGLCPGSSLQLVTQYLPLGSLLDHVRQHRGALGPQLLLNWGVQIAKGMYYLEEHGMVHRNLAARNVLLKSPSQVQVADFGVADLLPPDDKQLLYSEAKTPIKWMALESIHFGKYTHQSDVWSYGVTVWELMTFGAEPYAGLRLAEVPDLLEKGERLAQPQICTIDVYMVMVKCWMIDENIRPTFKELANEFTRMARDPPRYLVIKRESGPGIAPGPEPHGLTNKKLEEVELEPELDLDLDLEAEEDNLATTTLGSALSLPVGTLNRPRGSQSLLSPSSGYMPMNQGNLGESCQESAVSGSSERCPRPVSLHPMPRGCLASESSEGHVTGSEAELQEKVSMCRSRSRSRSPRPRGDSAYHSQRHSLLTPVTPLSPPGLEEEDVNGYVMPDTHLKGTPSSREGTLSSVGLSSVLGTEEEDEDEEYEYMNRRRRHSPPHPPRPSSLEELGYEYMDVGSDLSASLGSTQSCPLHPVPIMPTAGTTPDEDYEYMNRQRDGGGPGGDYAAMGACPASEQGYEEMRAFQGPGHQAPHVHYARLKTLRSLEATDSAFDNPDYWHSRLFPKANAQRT
Procedure: as §1

LIMK1 = LIMK1 (Homo sapiens (Human), UniProt P53667)
Procedure: as §1

MLCK = MLCK (Homo sapiens (Human), UniProt Q32MK0)
Procedure: as §1

[3] = biological target: ABL1(Q252H)-phosphorylated (Homo sapiens (Human), UniProt P00519, Q252H)
Procedure: as §1

CDK7 = CDK7 (Homo sapiens (Human), UniProt P50613)
Chain of CDK7 (P50613 whole entry): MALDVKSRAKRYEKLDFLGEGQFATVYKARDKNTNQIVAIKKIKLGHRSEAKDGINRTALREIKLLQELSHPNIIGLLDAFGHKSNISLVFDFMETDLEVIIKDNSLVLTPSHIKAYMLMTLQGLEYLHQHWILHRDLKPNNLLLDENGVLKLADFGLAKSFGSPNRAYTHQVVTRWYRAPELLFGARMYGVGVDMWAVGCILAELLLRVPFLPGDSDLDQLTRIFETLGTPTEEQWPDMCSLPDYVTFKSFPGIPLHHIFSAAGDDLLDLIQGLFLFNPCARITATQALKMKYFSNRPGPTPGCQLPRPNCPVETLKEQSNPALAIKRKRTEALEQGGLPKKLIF
Procedure: as §1

EPHB2 = EPHB2 (Homo sapiens (Human), UniProt P29323)
Procedure: as §1

PRKD2 = PRKD2 (Homo sapiens (Human), UniProt Q9BZL6)
Procedure: as §1

LRRK2(G2019S) = LRRK2(G2019S) (Homo sapiens (Human), UniProt Q5S007, G2019S)
Procedure: as §1

[4] = biological target: ABL1(H396P)-nonphosphorylated (Homo sapiens (Human), UniProt P00519, H396P)
Procedure: as §1

MAP4K4 = MAP4K4 (Homo sapiens (Human), UniProt O95819)
Procedure: as §1

PIK4CB = PIK4CB (Homo sapiens (Human), UniProt Q9UBF8)
Procedure: as §1

STK39 = STK39 (Homo sapiens (Human), UniProt Q9UEW8)
Procedure: as §1

FLT3 (K663Q) = FLT3 (K663Q) (Homo sapiens (Human), UniProt P36888, K663Q)
Procedure: as §1

PLK4 = PLK4 (Homo sapiens (Human), UniProt O00444)
Procedure: as §1

FGR = FGR (Homo sapiens (Human), UniProt P09769)
Procedure: as §1

STK33 = STK33 (Homo sapiens (Human), UniProt Q9BYT3)
Procedure: as §1

CDK8 = CDK8 (Homo sapiens (Human), UniProt P49336)
Procedure: as §1

PAK7 = PAK7 (Homo sapiens (Human), UniProt Q9P286)
Procedure: as §1

BMX = BMX (Homo sapiens (Human), UniProt P51813)
Procedure: as §1

TRKC = TRKC (Homo sapiens (Human), UniProt Q16288)
Procedure: as §1

EPHA4 = EPHA4 (Homo sapiens (Human), UniProt P54764)
Chain of EPHA4 (P54764 20-986): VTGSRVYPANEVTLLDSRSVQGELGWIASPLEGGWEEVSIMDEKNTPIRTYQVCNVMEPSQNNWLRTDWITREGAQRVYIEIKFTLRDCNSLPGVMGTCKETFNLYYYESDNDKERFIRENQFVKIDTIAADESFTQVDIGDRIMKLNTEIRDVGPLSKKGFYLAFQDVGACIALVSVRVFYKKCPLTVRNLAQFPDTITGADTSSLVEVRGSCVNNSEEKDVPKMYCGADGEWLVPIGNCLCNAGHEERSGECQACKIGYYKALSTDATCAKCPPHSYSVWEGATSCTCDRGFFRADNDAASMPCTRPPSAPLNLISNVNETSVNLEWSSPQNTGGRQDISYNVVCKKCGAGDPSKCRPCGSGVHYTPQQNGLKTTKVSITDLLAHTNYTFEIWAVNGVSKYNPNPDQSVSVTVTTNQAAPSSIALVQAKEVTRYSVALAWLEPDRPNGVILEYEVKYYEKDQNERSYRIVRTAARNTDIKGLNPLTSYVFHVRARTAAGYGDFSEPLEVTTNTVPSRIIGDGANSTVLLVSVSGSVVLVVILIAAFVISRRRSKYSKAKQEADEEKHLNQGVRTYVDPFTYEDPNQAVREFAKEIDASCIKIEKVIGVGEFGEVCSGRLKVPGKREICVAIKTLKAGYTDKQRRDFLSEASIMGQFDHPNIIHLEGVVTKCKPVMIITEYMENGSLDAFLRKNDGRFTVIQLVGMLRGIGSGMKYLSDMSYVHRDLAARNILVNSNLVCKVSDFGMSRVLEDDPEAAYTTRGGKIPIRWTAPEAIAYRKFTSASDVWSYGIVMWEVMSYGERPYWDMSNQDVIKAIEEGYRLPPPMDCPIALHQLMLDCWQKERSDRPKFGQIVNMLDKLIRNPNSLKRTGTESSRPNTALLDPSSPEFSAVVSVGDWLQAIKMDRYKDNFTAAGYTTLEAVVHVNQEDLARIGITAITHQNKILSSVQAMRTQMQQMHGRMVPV
Procedure: as §1

Structure (SMILES)	remaining binding at 1 µM (JNK2) [%]	remaining binding at 1 µM (MARK1) [%]	remaining binding at 1 µM (ACVR2A) [%]	remaining binding at 1 µM [1] [%]	remaining binding at 1 µM (IKK-epsilon) [%]	remaining binding at 1 µM (MKK7) [%]	remaining binding at 1 µM (OSR1) [%]	remaining binding at 1 µM (KIT(V559D)) [%]	remaining binding at 1 µM (TTK) [%]	remaining binding at 1 µM (KIT(V559D,T670I)) [%]	remaining binding at 1 µM (DMPK2) [%]	remaining binding at 1 µM (DCAMKL1) [%]	remaining binding at 1 µM (RIPK5) [%]	remaining binding at 1 µM [2] [%]	remaining binding at 1 µM (TBK1) [%]	remaining binding at 1 µM (AKT3) [%]	remaining binding at 1 µM (TNK2) [%]	remaining binding at 1 µM (ERBB3) [%]	remaining binding at 1 µM (LIMK1) [%]	remaining binding at 1 µM (MLCK) [%]	further results
CCN1CCN(Cc2cc(NC(=O)c3ccc(C)c(-c4ccc5nc(NC(=O)C6CC6)cn5n4)c3)cc(C(F)(F)F)c2)CC1 [Compound I-2, 3-(2-(cyclopropanecarboxamido)imidazo[1,2-b]pyridazin-6-yl)-N-(3-((4-ethylpiperazin-1-yl)methyl)-5-(trifluoromethyl)phenyl)-4-methylbenzamide]	46	91	63	0	80	84	99	0	83	6.6	87	90	89	97	75	8	100	100	87	93	remaining binding at 1 µM [3]: 0.35%; remaining binding at 1 µM (CDK7): 0.55%; remaining binding at 1 µM (EPHB2): 0%; remaining binding at 1 µM (PRKD2): 97%; remaining binding at 1 µM (LRRK2(G2019S)): 84%; remaining binding at 1 µM [4]: 0%; remaining binding at 1 µM (MAP4K4): 0.15%; remaining binding at 1 µM (PIK4CB): 97%; remaining binding at 1 µM (STK39): 74%; remaining binding at 1 µM (FLT3 (K663Q)): 5.6%; remaining binding at 1 µM (PLK4): 81%; remaining binding at 1 µM (FGR): 0.15%; remaining binding at 1 µM (STK33): 70%; remaining binding at 1 µM (CDK8): 4.8%; remaining binding at 1 µM (PAK7): 73%; remaining binding at 1 µM (BMX): 65%; remaining binding at 1 µM (TRKC): 0.05%; remaining binding at 1 µM (EPHA4): 0%
CCN1CCN(Cc2cc(NC(=O)c3ccc(C)c(-c4ccc5nc(NC(=O)C6CC6)cn5c4)c3)cc(C(F)(F)F)c2)CC1 [Compound I-6, 3-(2-(cyclopropanecarboxamido)imidazo[1,2-a]pyridin-6-yl)-N-(3-((4-ethylpiperazin-1-yl)methyl)-5-(trifluoromethyl)phenyl)-4-methylbenzamide]	27	77	100	0	87	100	100	0.05	83	5.5	100	84	100	100	96	94	99	93	96	85	remaining binding at 1 µM [3]: 0.6%; remaining binding at 1 µM (CDK7): 1%; remaining binding at 1 µM (EPHB2): 0%; remaining binding at 1 µM (PRKD2): 100%; remaining binding at 1 µM (LRRK2(G2019S)): 100%; remaining binding at 1 µM [4]: 0%; remaining binding at 1 µM (MAP4K4): 0.75%; remaining binding at 1 µM (PIK4CB): 96%; remaining binding at 1 µM (STK39): 93%; remaining binding at 1 µM (FLT3 (K663Q)): 4.2%; remaining binding at 1 µM (PLK4): 95%; remaining binding at 1 µM (FGR): 0%; remaining binding at 1 µM (STK33): 100%; remaining binding at 1 µM (CDK8): 3%; remaining binding at 1 µM (PAK7): 98%; remaining binding at 1 µM (BMX): 42%; remaining binding at 1 µM (TRKC): 0.05%; remaining binding at 1 µM (EPHA4): 0%
